According to US10738007B2, “Amide compounds as kinase inhibitors, compositions and methods of treatment” (TRANSLATIONAL DRUG DEVELOPMENT, LLC, priority 2016, dated 2020):
Where two headings read alike, the source gives them in different places. Values belong to the molecule of their own block, whether it stands above or below them.

Experiments:
K562 cell line = test: Cell viability assay ([…]-GLO), K562; assay type: cell-based; conditions: Homo sapiens; K562 (does not express ITD-FLT3), 72 hours treatment
How it was run: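 Cells seeded 2.5×10^3-5×10^3/well, grown 24 h, then exposed to compounds for 72 h. Viability read as ATP luminescence (CellTiter-Glo-type) after 37° C incubation; % growth = test/vehicle ×100. IC50 from sigmoidal dose-response fit.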

ROCK2 = ROCK2 (Homo sapiens (Human), UniProt O75116); test: ROCK2 kinase inhibition assay (peptide phosphorylation, LABCHIP 3000); assay type: biochemical; conditions: 7 μM ATP, 2.5 nM ROCK2, 3 hours at 25° C.
Protocol: (§1) The peptide is phosphorylated by the protein kinase ROCK1 or ROCK2. The ROCK1 or ROCK2 enzyme, substrate, and cofactors (ATP and Mg^2+) are combined in a well of a microtiter plate and incubated for 3 hours at 25° C. in the presence or absence of an inhibitor compound. At the end of the incubation, the reaction is quenched by the addition of an EDTA-containing buffer. The substrate and product are separated and quantified electrophoretically using the microfluidic-based LABCHIP® 3000 Drug Discovery System from Caliper Life Sciences (Hopkinton, Mass.).
(§2) The components of the assay mixture are:
10 μM Sodium Orthovanadate
10 LM Beta-Glycerophosphate
(§3) 5 μM ATP (for ROCK1) or 7 μM ATP (for ROCK2)
3 nM ROCK1 or 2.5 nM ROCK2 enzyme
(§4) Substrate and product peptides present in each sample are separated electrophoretically using the LABCHIP® 3000 capillary electrophoresis instrument. […] Change in the relative fluorescence intensity of the substrate and product peaks is the parameter measured reflecting enzyme activity. Capillary electrophoregramms (RDA acquisition files) are analyzed using HTS Well Analyzer software (Caliper Life Sciences, Hopkinton, Mass.). The kinase activity in each sample is determined as the product to sum ratio (PSR): P/(S+P), where P is the peak height of the product peptide and S is the peak height of the substrate peptide. For each compound, enzyme activity is measured at various concentrations (12 concentrations of compound spaced by 3× dilution intervals). Negative control samples (0%-inhibition in the absence of inhibitor) and positive control samples (100%-inhibition in the presence of 20 mM EDTA) are assembled in replicates of four and are used to calculate %-inhibition values for each compound at each concentration. Percent inhibition (Pinh) is determined using the following equation: Pinh=(PSRO %−PSRinh)/(PSRO %−PSR100%)*100
(§5) where PSRinh is the product sum ratio in the presence of inhibitor, PSRO % is the average product sum ratio in the absence of inhibitor, and PSR100% is the average product sum ratio in 100%-inhibition control samples. The IC50 values of inhibitors are determined by fitting the inhibition curves (Pinh versus inhibitor concentration) by the 4-parameter sigmoidal dose-response model using XLfit 4 software (IBDS).

[1] = Pharmacokinetic activity in mice; assay type: in vivo; conditions: for AUC(0-t): read-out: AUC0-8
Protocol: Compounds were individually and accurately weighed out to produce a stock solution in Dimethyl-sulfoxide (DMSO) at a concentration of 2 mg/mL and stored at −20° C. From the stock solution, a working stock was prepared by diluting it in Methanol-Water 50:50 (v/v) at 20 μg/mL for calibration curve preparation and stored at 4° C. Standards used for quantitation and quality control samples (QCs) were prepared on the same day of sample processing using blank plasma obtained from non-treated mice. For each analyte, standards were prepared through serial dilutions of the working stock at concentrations of 0.1, 0.5, 1.0, 10, 50, 100, 500, and 1000 ng/mL; QCs were prepared at intermediate concentrations of 0.75, 7.5, 75, and 750 ng/mL. Plasma samples were stored at −80° C. until ready for analysis and then placed on ice for thawing. An aliquot of […] samples, standards, or QCs, were transferred into a 96-well extraction plate according to a pre-defined layout. An appropriate volume of Methanol-Formic Acid 99.9-0.1 containing internal standard (Verapamil at 25 ng/mL) was added to each well and the samples were extracted under vacuum. Eluent was then transferred into a LCMS plate for analysis using a suitable column for separation and MRM detection. Concentration of analytes was calculated based on the calibration curve and analyzed for pharmacokinetic parameters by using Non-compartmental analysis (NCA). Parameters such as Cmax, Tmax, half-life, AUC(0-last), AUC(0-∞), volume of distribution (Vss), and clearance (Cl/F) were reported.

MV411 cell line = test: Cell viability assay ([…]-GLO), MV411; assay type: cell-based; conditions: for IC50: Homo sapiens, MV4-11, MV411 (ITD-FLT3+), 72 hours treatment; for FLT3-ITD+ Selectivity (K562/MV411): ratio K562/MV411
Protocol: Cell viability in the presence of varying concentrations of the above listed compounds at different time points was used to assess cytotoxicity and the effect of the compounds on cell proliferation.
Cell viability was measured by the […] -GlO® cell viability assay from Promega (Madison, Wis.). The […] -GlO Luminescent Cell Viability Assay is a homogeneous method to determine the number of viable cells in culture based on quantitation of the ATP present, which signals the presence of metabolically active cells. Following treatment, […] -GlO® is added to treatment wells and incubated at 37° C. Luminescence values were measured at using a Molecular Devices Spectramax microplate reader.
Cells were grown to 70% confluency, trypsinized, counted, and seeded in 96 well flat-bottom plates at a final concentration of 2.5×10^3-5×10^3 cells/well (Day 0). Cells were allowed to incubate in growth media for 24 hours. Treatment with the test agents or standard agents began on Day 1 and continued for 72 hours. At the 72-hour time point, treatment containing media was removed.
For single agent and combination studies, data from each experiment was collected and expressed as % Cell Growth using the following calculation: % Cell Growth=(ftest/fvehicle)×100
Where ftest is the luminescence of the tested sample, and fvehicle is the luminescence of the vehicle in which the drug is dissolved. Dose response graphs and IC50 values were generated using Prism 6 software (GraphPad) using the following equation: Y=(Top−Bottom)/(1+10^((logIC50-X)−HillSlope))
Where X is the logarithm of the concentration and Y is the response. Y starts at the Bottom and goes to the Top with a sigmoid shape.
The experiments also evaluated the selectivity of the compounds for inhibiting growth of cancer cells carrying a mutation in the Flt3 gene. The MV411 cell line expresses the mutant allele of Flt3 with internal tandem duplications (ITD) of the gene.

ROCK1 = ROCK1 (Homo sapiens (Human), UniProt Q13464); test: ROCK1 kinase inhibition assay (peptide phosphorylation, LABCHIP 3000); assay type: biochemical; conditions: 5 μM ATP, 3 nM ROCK1, 3 hours at 25° C.
Chain of ROCK1 (Q13464 whole entry, species assumed): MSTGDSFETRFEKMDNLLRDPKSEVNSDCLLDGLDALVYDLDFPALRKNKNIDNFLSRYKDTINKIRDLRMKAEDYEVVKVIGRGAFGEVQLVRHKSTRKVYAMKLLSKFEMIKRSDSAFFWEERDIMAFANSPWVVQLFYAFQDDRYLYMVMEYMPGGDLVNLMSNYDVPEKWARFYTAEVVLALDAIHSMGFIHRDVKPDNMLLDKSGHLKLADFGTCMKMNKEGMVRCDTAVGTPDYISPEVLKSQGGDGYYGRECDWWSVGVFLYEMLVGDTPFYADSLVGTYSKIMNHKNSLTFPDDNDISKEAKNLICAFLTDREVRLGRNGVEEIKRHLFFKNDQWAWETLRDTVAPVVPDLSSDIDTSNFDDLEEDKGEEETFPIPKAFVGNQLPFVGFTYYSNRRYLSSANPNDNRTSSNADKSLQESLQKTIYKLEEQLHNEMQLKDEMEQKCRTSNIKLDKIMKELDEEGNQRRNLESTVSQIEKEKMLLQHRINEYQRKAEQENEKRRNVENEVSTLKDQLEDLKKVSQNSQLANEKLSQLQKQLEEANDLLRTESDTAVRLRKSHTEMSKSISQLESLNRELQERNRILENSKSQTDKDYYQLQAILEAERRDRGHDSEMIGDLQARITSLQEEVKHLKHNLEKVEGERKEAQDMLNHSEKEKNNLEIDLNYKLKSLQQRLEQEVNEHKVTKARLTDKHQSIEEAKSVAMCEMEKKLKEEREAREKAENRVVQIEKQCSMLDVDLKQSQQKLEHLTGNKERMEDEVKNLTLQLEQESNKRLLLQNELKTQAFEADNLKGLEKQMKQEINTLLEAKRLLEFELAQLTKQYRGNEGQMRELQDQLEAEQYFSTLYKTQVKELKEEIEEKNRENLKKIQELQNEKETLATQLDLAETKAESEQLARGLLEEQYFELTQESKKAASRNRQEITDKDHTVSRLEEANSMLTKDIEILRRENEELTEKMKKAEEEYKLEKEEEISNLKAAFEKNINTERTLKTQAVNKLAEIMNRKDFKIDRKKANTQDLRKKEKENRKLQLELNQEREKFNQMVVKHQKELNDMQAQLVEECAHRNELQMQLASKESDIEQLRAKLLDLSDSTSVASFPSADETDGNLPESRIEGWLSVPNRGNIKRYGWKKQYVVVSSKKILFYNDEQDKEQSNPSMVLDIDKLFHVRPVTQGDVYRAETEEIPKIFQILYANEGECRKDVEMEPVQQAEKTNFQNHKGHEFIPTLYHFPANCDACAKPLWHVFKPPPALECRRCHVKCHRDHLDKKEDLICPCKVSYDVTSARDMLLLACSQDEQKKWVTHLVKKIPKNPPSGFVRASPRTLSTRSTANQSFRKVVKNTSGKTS
Protocol: as §1, §2
10 μM Sodium Orthovanadate
10 LM Beta-Glycerophosphate
as §3
3 nM ROCK1 or 2.5 nM ROCK2 enzyme
as §4, §5

Chain of ROCK2 (O75116 whole entry, species assumed): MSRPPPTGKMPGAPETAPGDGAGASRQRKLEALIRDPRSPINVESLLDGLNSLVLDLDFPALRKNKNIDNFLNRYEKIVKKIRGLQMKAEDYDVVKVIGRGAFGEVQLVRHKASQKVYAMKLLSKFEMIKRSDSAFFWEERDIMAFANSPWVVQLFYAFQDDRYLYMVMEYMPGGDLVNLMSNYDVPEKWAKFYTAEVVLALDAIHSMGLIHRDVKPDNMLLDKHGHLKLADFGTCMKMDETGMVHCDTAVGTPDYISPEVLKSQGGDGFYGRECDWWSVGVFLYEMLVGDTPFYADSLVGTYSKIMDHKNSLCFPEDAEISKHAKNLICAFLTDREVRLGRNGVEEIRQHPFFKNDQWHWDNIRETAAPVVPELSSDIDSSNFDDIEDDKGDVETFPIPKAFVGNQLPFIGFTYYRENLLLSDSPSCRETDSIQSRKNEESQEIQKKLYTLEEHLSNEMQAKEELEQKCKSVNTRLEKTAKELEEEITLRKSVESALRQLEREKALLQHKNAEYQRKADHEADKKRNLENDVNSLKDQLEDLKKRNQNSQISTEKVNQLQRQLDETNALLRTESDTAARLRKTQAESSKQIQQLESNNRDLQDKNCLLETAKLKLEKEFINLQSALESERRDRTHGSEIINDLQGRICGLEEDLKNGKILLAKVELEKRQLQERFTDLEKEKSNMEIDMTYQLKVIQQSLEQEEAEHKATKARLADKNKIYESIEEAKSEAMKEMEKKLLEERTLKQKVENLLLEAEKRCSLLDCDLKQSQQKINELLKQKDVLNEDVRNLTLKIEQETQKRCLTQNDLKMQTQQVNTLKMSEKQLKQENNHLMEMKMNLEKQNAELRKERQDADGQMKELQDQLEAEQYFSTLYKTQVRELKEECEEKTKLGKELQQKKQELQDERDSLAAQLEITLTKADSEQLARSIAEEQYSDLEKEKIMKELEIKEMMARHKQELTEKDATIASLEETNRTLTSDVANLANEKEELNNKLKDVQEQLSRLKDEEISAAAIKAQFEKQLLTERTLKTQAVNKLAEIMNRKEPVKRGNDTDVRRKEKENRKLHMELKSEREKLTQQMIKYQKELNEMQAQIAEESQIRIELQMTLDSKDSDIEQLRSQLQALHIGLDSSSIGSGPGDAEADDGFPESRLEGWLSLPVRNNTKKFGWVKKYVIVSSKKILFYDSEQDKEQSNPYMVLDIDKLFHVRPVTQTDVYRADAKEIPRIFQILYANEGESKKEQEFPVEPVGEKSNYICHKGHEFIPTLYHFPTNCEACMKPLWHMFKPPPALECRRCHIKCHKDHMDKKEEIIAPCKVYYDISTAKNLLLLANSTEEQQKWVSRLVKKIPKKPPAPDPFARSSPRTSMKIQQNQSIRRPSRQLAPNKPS

IC50 (K562 cell line): 17000 nM
IC50 (ROCK2): 0.87 nM
AUC % Extrap ([1]; IV - 1 mg/kg): 0.39%
Cl/F obs ([1]; IV - 1 mg/kg): 2.83 mL/min/kg
R-sq ([1]; IV - 1 mg/kg): 0.90
AUC % Extrap ([1]; PO - 5 mg/kg): 0.09%
R-sq ([1]; PO - 5 mg/kg): 0.93
AUC(0-inf) ([1]; mouse, plasma, IV - 1 mg/kg): 5370 ng·h/mL
C0 ([1]; mouse, plasma, IV - 1 mg/kg): 7000 ng/mL
Cmax ([1]; mouse, plasma, IV - 1 mg/kg): 4180 ng/mL
Tmax ([1]; mouse, plasma, IV - 1 mg/kg): 0.25 h
half-life ([1]; mouse, plasma, IV - 1 mg/kg): 3.86 h
AUC(0-t) ([1]; mouse, plasma, IV - 1 mg/kg): 5350 ng·h/mL
Vd ([1]; mouse, plasma, IV - 1 mg/kg, read-out: Vss): 0.32 L/kg
AUC(0-inf) ([1]; mouse, plasma, PO - 5 mg/kg): 51500 ng·h/mL
CL/F ([1]; mouse, plasma, PO - 5 mg/kg): 1.5 mL/min/kg
Cmax ([1]; mouse, plasma, PO - 5 mg/kg): 13100 ng/mL
Tmax ([1]; mouse, plasma, PO - 5 mg/kg): 1 h
half-life ([1]; mouse, plasma, PO - 5 mg/kg): 2.32 h
bioavailability ([1]; mouse, plasma, PO - 5 mg/kg vs IV - 1 mg/kg): > 100%
AUC(0-t) ([1]; mouse, plasma, PO - 5 mg/kg): 51400 ng·h/mL
Vd/F ([1]; mouse, plasma, PO - 5 mg/kg, read-out: Vz/F obs): 0.3 L/kg
IC50 (MV411 cell line): 170 nM
IC50 (ROCK1): 4.8 nM
SMILES: O=C(NC1CCCC1)c1cccc([C@@H](CO)NC(=O)c2ccc(-c3ccncc3)cc2)c1 [Compound 10]
FLT3-ITD+ Selectivity (K562/MV411) (MV411 cell line): 100

IC50 (K562 cell line): > 100000 nM
IC50 (ROCK2): 0.57 nM
IC50 (MV411 cell line): 30 nM
IC50 (ROCK1): 1.7 nM
SMILES: COC(=O)N1CCC(CNC(=O)c2cccc([C@@H](CO)NC(=O)c3ccc(-c4ccncc4)cc3)c2)CC1 [Compound 78]
FLT3-ITD+ Selectivity (K562/MV411) (MV411 cell line): >3333

IC50 (K562 cell line): > 100000 nM
IC50 (ROCK2): 1.1 nM
IC50 (MV411 cell line): 2400 nM
IC50 (ROCK1): 1.6 nM
SMILES: Cn1ccc2ccc(NC(=O)c3cccc([C@@H](CO)NC(=O)c4ccc(-c5ccncc5)cc4)c3)cc2c1=O [Compound 28]
FLT3-ITD+ Selectivity (K562/MV411) (MV411 cell line): >42
